For one data set, the target named is urease (Canavalia ensiformis, UniProt P07374). The experiment in a line: Urease inhibition assay (customized Berthelot assay). It counts as biochemical. Conditions: for inhibition at 500 µM: read-out: Urease Inhibition, Inhibition (%). The protocol: This enzyme assay is the customized form of the commonly known Berthelot assay ([23], [24]). […] The contents were pre-incubated at 37 °C for 5 min. 40 µL of urea stock solution (20 mM) was added to each well with incubation for 10 min at 37 °C. It is followed by the addition of 115 µL phenol hypochlorite reagents (freshly prepared by mixing 45 µL phenol with 70 µL of alkali) per well. For color development, incubation was carried out for further 10 min at 37 °C. The absorbance was measured at 625 nm. The percentage enzyme inhibition and IC50 values were calculated using the following formula:
inhibition%=Control-test/Control×100
Where, Control is the total enzyme activity without inhibitor and Test is the activity in the presence of test compound. IC50 values were calculated using the EZ–Fit Enzyme kinetics software (Perrella Scientific Inc. Amherst, US).
Statistical analysis was performed by Microsoft Excel 2010 for all the thrice measured values and the results are presented as mean ± SEM.

The nature of data set [1]: Hemolytic activity (cytotoxicity through hemolysis). In kind it is cell-based. As to conditions: bovine, red blood cell (erythrocyte) suspension, pH 7.4, 20 µL compound solution (10 mg/mL) in 180 µL RBCs suspension, room temperature, PBS negative control, Triton positive control. The source says: The erythrocytes separated diluted in phosphate buffer saline of pH 7.4 and a suspension was made.

Where two headings read alike, the source gives them in different places.

Sequence of urease (P07374 whole entry, looked up): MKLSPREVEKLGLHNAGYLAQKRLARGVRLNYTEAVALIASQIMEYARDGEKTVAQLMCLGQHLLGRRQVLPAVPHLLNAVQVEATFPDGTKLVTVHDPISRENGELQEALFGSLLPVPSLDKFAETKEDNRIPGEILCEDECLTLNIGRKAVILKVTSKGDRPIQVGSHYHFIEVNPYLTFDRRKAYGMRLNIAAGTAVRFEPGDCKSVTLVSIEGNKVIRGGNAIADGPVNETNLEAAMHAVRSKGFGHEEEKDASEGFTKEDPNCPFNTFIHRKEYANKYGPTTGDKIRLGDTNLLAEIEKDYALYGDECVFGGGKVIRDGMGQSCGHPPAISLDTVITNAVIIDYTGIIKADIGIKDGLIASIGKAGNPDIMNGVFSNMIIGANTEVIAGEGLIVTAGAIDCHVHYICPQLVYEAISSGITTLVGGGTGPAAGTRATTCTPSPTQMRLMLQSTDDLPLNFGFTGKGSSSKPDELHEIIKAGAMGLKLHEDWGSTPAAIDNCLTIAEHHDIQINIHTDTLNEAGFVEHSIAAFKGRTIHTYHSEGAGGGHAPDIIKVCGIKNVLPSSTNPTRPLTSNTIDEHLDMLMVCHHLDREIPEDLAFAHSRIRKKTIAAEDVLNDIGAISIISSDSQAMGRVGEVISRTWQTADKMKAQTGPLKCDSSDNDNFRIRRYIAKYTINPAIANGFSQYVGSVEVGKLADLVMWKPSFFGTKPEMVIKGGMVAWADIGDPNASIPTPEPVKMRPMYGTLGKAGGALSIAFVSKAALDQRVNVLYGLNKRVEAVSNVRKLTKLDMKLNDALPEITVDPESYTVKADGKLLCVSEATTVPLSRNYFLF

Broadly, the IC50 is the midpoint of a concentration-inhibition curve. The inhibition is the drop in the measured response relative to a control, in per cent. As to `CCc1ccc(NC(=O)CCSc2nnc(Cc3csc(N)n3)o2)cc1` [Compound 7k, 3-({5-[(2-amino-1,3-thiazol-4-yl)methyl]-1,3,4-oxadiazol-2-yl}sulfanyl)-N-(4-ethylphenyl)propanamide], at urease, half-maximal inhibition (IC50) required 2.85 ± 0.05 µM and the inhibition at 500 µM is 97.43 ± 0.07%. Further, in data set [1], the hemolysis at 30 min, 1 mg/mL was found to be 7.16%.
Regarding `Cc1ccccc1NC(=O)CCSc1nnc(Cc2csc(N)n2)o1` [Compound 7b, 3-({5-[(2-Amino-1,3-thiazol-4-yl)methyl)-1,3,4-oxadiazol-2-yl}sulfanyl)-N-(2-methylphenyl)propanamide], at urease, inhibition was half-maximal at 2.64 ± 0.03 µM (IC50) and the inhibition at 500 µM worked out at 96.42 ± 0.02%. In data set [1], this molecule showed a hemolysis at 30 min, 1 mg/mL of 7.05%.
On to `CC(C)(C)CC(C)(C)c1ccc(OCCO)cc1` [Triton-X, reference compound], for which, in data set [1], the hemolysis at 30 min, 1 mg/mL was 89%.
As usually defined, the melting point is the temperature, or range, at which the solid turns liquid. Molecule `Nc1nc(Cc2nnc(SCCC(=O)Nc3ccccc3)o2)cs1` [Compound 7a, 3-({5-[(2-Amino-1,3-thiazol-4-yl)methyl]-1,3,4-oxadiazol-2-yl}sulfanyl)-N-phenylpropanamide] showed a melting point of 190 to 191 °C. For the same molecule, at urease, the half-maximal inhibitory concentration (IC50) stood at 2.45 ± 0.04 µM and the inhibition at 500 µM amounted to 98.24 ± 0.08%. The molecule also returned a hemolysis at 30 min, 1 mg/mL in data set [1] of 11.5%.
With `Cc1cccc(NC(=O)CCSc2nnc(Cc3csc(N)n3)o2)c1` [Compound 7c, 3-({5-[(2-Amino-1,3-thiazol-4-yl)methyl]-1,3,4-oxadiazol-2-yl}sulfanyl)-N-(3-methylphenyl)propanamide], on urease, the midpoint of inhibition, the IC50, lay at 1.32 ± 0.02 µM and the inhibition at 500 µM was 98.52 ± 0.05%. In data set [1], this molecule returned a hemolysis at 30 min, 1 mg/mL of 5.16%.
The corresponding values for `Cc1ccc(C)c(NC(=O)CCSc2nnc(Cc3csc(N)n3)o2)c1` [Compound 7f, 3-({5-[(2-Amino-1,3-thiazol-4-yl)methyl]-1,3,4-oxadiazol-2-yl}sulfanyl)-N-(2,5-dimethylphenyl)propanamide] are 5.18 ± 0.06 µM, 96.26 ± 0.03% and 6.42%.
Turning to `NC(N)=S` [Thiourea, reference compound], the “Urease Inhibition, Inhibition (%)” value at urease (at 0.5 mM, mean ± SEM, n = 3) is on record as “Thiourea 98.12 ± 0.18%”. Besides, the IC50 at urease (mean ± SEM, n = 3, EZ-Fit Enzyme kinetics software, read-out: Urease Inhibition, IC50) came out at 21.1 µM.
`CCc1ccccc1NC(=O)CCSc1nnc(Cc2csc(N)n2)o1` [Compound 7j, 3-({5-[(2-Amino-1,3-thiazol-4-yl)methyl]-1,3,4-oxadiazol-2-yl}sulfanyl)-N-(2-ethylphenyl)propanamide]: the melting point fell in the range of 198 to 199 °C. Moreover, at urease, the IC50 came to 2.13 ± 0.01 µM and the inhibition at 500 µM turned out to be 98.12 ± 0.03%. Also, in data set [1], the hemolysis at 30 min, 1 mg/mL was determined as 6.63%.
`CCOc1ccc(NC(=O)CCSc2nnc(Cc3csc(N)n3)o2)cc1` [Compound 7l, 3-({5-[(2-Amino-1,3-thiazol-4-yl)methyl]-1,3,4-oxadiazol-2-yl}sulfanyl)-N-(4-ethoxyphenyl)propanamide]: on urease, the IC50 is 2.17 ± 0.02 µM and the inhibition at 500 µM came to 97.25 ± 0.04%. This molecule gave a hemolysis at 30 min, 1 mg/mL in data set [1] of 8.11%.
The molecule `Cc1cccc(C)c1NC(=O)CCSc1nnc(Cc2csc(N)n2)o1` [Compound 7g, 3-({5-[(2-Amino-1,3-thiazol-4-yl)methyl]-1,3,4-oxadiazol-2-yl}sulfanyl)-N-(2,6-dimethylphenyl)propanamide] came in with a melting point of 149 to 150 °C. Moreover, on urease, 2.63 ± 0.03 µM corresponded to half-maximal inhibition (IC50) and the inhibition at 500 µM stood at 98.52 ± 0.06%. In addition, in data set [1], the hemolysis at 30 min, 1 mg/mL is 7.37%.
Regarding `Cc1cc(C)cc(NC(=O)CCSc2nnc(Cc3csc(N)n3)o2)c1` [Compound 7i, 3-({5-[(2-Amino-1,3-thiazol-4-yl)methyl]-1,3,4-oxadiazol-2-yl}sulfanyl)-N-(3,5-dimethylphenyl)propanamide], at urease, the IC50 was determined as 3.62 ± 0.01 µM and the inhibition at 500 µM came to 97.31 ± 0.08%. The molecule further returned a hemolysis at 30 min, 1 mg/mL in data set [1] of 5.26%.
`Cc1ccc(NC(=O)CCSc2nnc(Cc3csc(N)n3)o2)cc1C` [Compound 7h, 3-({5-[(2-Amino-1,3-thiazol-4-yl)methyl]-1,3,4-oxadiazol-2-yl}sulfanyl)-N-(3,4-dimethylphenyl)propanamide] had a melting point of 177 to 178 °C. On urease, the half-maximal inhibitory concentration (IC50) worked out at 2.56 ± 0.02 µM and the inhibition at 500 µM was 97.28 ± 0.02%. Besides, the hemolysis at 30 min, 1 mg/mL in data set [1] worked out at 5.79%.
As for `Cc1ccc(NC(=O)CCSc2nnc(Cc3csc(N)n3)o2)c(C)c1` [Compound 7e, 3-({5-[(2-Amino-1,3-thiazol-4-yl)methyl]-1,3,4-oxadiazol-2-yl}sulfanyl)-N-(2,4-dimethylphenyl)propanamide], at urease, the IC50 was determined as 1.24 ± 0.01 µM and the inhibition at 500 µM was 98.19 ± 0.09%. Besides, in data set [1], the hemolysis at 30 min, 1 mg/mL came to 6.74%.
As to `Cc1ccc(NC(=O)CCSc2nnc(Cc3csc(N)n3)o2)cc1` [Compound 7d, 3-({5-[(2-Amino-1,3-thiazol-4-yl)methyl]-1,3,4-oxadiazol-2-yl}sulfanyl)-N-(4-methylphenyl)propanamide], on urease, 1.75 ± 0.01 µM corresponded to half-maximal inhibition (IC50) and the inhibition at 500 µM came to 98.13 ± 0.02%. Further, in data set [1], the hemolysis at 30 min, 1 mg/mL stood at 7.16%.

The record behind these values is publication PMC7462494, “Novel Bi-heterocycles as Potent Inhibitors of Urease and Less Cytotoxic Agents: 3-({5-((2-Amino-1,3-thiazol-4-yl)methyl)-1,3,4-oxadiazol-2-yl}sulfanyl)-N-(un/substituted-phenyl)propanamides” (Iranian Journal of Pharmaceutical Research : IJPR, 2020).
